# Assay results taken from patent publication US8138148B2, “GDNF derived peptides” (Copenhagen University, priority 2005, dated 2012).
# Columns and labels:
# Format in all cases: cell-based, rat
# [1] = tested on: primary hippocampal neurons; assay: Neurite outgrowth assay, monocultures of primary hippocampal neurons; details: monoculture, stimulated 24 hours; GDNF 1-100 ng/ml, peptides 0.1-27 μg/ml; versus medium alone
# Method: (§1) Two different versions of the neurite outgrowth assay were used in this study, monocultures and co-cultures.
# (§2) In monocultures, neurons are grown directly on plastic and the only neuritogenic stimulus is the one presented by the added substance. In co-cultures, neurons are grown on top of a confluent monolayer of fibroblasts expressing NCAM-140 (LBN110) or NCAM-negative control fibroblasts (LVN212). NCAM on the neurons interact with NCAM on LBN110 cells thereby stimulating neurite outgrowth from the neurons. This system thus permits the study of NCAM-NCAM interactions and interactions between NCAM and other molecules.
# (§3) For all experiments cells were grown in neurobasal medium with supplements as described above in a final volume of 300 μl/well in 8-well LabTek® Permanox Chamber slides or 500 μl/well in 4-well LabTek® Permanox Chamber slides.
# For monocultures, primary hippocampal neurons were seeded in 8-well LabTek® Permanox Chamber slides at a density of 10,000 cells/well.
# (§4) To evaluate the effect peptides on neurite outgrowth, GDNF and the peptides, G1, G2, G3, A1, A2, A3, N1, N2 and N3 were diluted to the appropriate concentrations and added to the neurons approximately 10 minutes after seeding. Medium alone was added to controls, and cells were incubated for 24 hours.
# Neurite outgrowth experiments were terminated after the stated time by fixating the cells. To visualize neurons and their neurites, immunostaining of GAP-43 was performed. This staining is specific for neurons. Transfected cells and their neurites should be visible without immunostaining due to the fluorescence emitted by GFP. […] GFP is a cytoplasmic protein, and since thin neurites only contain a small volume of cytoplasm, GFP is only found in small amounts in most neurites. Therefore, a double-staining protocol, where cells were immunostained against GFP and GAP-43, was adopted. This protocol allowed the identification of transfected cells on the basis of GFP-staining in combination with visualization of neurites based on GAP-43-staining. […]
# [2] = tested on: hippocampal neurons; assay: Neurite outgrowth assay, co-cultures of hippocampal neurons on control fibroblasts or NCAM-expressing fibroblasts; details: 24 hours
# Method: as §1, §2, §3
# (§5) For cocultures, L-cells were seeded in 8-well LabTek® Permanox Chamber slides at a density of 100.000 cells/well, except for transfection experiments where cells were seeded in 4-well LabTek® Permanox Chamber slides at a density of 200.000 cells/well. L-cells were grown for 24 hours in DMEM supplemented with 10% (v/v) FCS, 1% (v/v) glutamax, 100 U/ml penicillin, 100 μg/ml streptomycin, 2.5 μg/ml fungizone, and 567 μg/ml neomycin (G418), followed by washing twice in neurobasal medium with supplements before primary hippocampal neurons were seeded at a density of 7.000 cells/well in 8-well slides or 20.000 cells/well in 4-well slides.
# as §4
# Neurite outgrowth experiments were terminated after the stated time by fixating the cells. To visualize neurons and their neurites, immunostaining of GAP-43 was performed. This staining is specific for neurons. Transfected cells and their neurites should be visible without immunostaining due to the fluorescence emitted by GFP. […] GFP is a cytoplasmic protein, and since thin neurites only contain a small volume of cytoplasm, GFP is only found in small amounts in most neurites. Therefore, a double-staining protocol, where cells were immunostained against GFP and GAP-43, was adopted. This protocol allowed the identification of transfected cells on the basis of GFP-staining in combination with visualization of neurites based on GAP-43-staining.
# Without prior removal of the medium 300 μl/well (8-well slides) or 500 μl/well (4-well slides) of a PBS solution containing 0.4 mM CaCl2, 0.05 M sucrose and 8% (v/v) formaldehyde was added to the cultures for 20 minutes. Cells were then washed 10 minutes in PBS followed by washing in PBS with 1% (w/v) BSA for 20 minutes, after which cells were incubated with primary antibodies overnight at 4° C.
# Rabbit anti-rat GAP-43 antibodies were diluted 1:1000 for staining of untransfected cells and 1:2000 for staining of transfected cells. Mouse anti-GFP antibodies were diluted 1:1000. Antibodies were diluted in a PBS solution containing 7% (v/v) FCS to block unspecific binding, 50 mM glycine to block formaldehyde used for fixation, 0.2% (v/v) saponin to permeabilize cells, and 0.02% (v/v) NaN3 to preserve antibodies for later use.
# The next day cells were washed 10 minutes in PBS followed by washing in PBS with 1% (w/v) BSA for 20 minutes. Cells were then incubated with secondary antibodies diluted in PBS with 1% (w/v) BSA for one hour at room temperature. Goat anti-rabbit IgG antibodies conjugated to Alexa 488 were diluted 1:1000 for untransfected cells and 1:2000 for transfected cells. Goat anti-mouse IgG antibodies conjugated to Alexa 546 were diluted 1:1000. Finally cells were washed 3×7 minutes in PBS and mounted with fluorescent mounting medium. […]
# [3] = tested on: hippocampal neurons; assay: Neurite outgrowth of hippocampal neurons transfected with dominant negative FGFR; details: 10 ng/ml GDNF or 3 μg/ml GDNFp1, 18 hours, dnFGFR vs empty vector
# Method: as §5
# Additionally, neurons were transiently transfected with a dominant negative version of the FGFR (dnFGFR), As an alternative to the use of a pharmacological FGFR inhibitor, The dnFGFR plasmid encodes an FGFR that lacks the kinase domain. This mutant receptor inhibits the function of wild type FGFR by engaging in dimers that lack kinase activity. Transfection with an empty vector served as control. Transfection was also done with wtFGFR in order to assess the effect of overexpressing the FGFR.
# Transfections were performed with a Nucleofector™ device and a Rat Neuron Nucleofector™ kit (Amaxa Inc., Gaithersburg, Md., USA). This transfection method is based on electroporation in combination with a Nucleofector™ solution containing lipophilic agents. These agents form liposomes containing the plasmid DNA, which then enter the cells during electroporation. The method allows transfection of undividing cells such as neurons. 3 μg of the plasmid of interest was mixed with the Nucleofector™ solution and primary hippocampal neurons were resuspended in the mixture, electroporated in the Nucleofector™ device, and transferred to neurobasal medium with supplements and 5% (v/v) FCS. Cells were then incubated for 2 hours after which they were resuspended in medium without serum, counted, seeded and incubated for 6 hours before GDNF or GDNFp1 was added. Medium alone was added to control and cells were incubated for 18 hours.
# All transient transfections in this study included co-transfection with a plasmid encoding EGFP, which allows the identification of transfected cells. To ensure that all EGFP-expressing cells also are transfected with the plasmid of interest, a ratio of […] between the EGFP-encoding plasmid and the plasmid of interest was used (i.e. 0.5 μg EGFP-encoding plasmid was used for each transfection).
# Neurite outgrowth experiments were terminated after the stated time by fixating the cells. To visualize neurons and their neurites, immunostaining of GAP-43 was performed. This staining is specific for neurons. Transfected cells and their neurites should be visible without immunostaining due to the fluorescence emitted by GFP. […]
sequence,measurement,setting,value
"ETTYDKILKNLSRNR (listed as Homo sapiens) [G2, GDNF fragment]","neurite outgrowth, overall effect of treatment (one-way ANOVA)",[1],overall statistical significant effect
same,"neurite outgrowth, overall effect of treatment, neurons grown on NCAM-expressing fibroblasts","[2]; co-culture on NCAM-expressing fibroblasts, GDNF 1-100 ng/ml, peptides 0.1-81 μg/ml",overall significant effect
same,"neurite outgrowth, overall effect of treatment, neurons grown on control fibroblasts","[2]; co-culture on control fibroblasts, GDNF 1-100 ng/ml, peptides 0.1-81 μg/ml",overall significant effect
same,difference between neurite outgrowth on control fibroblasts and on NCAM-expressing fibroblasts across concentrations (one-way ANOVA),"[2]; difference per concentration, expressed as percentage of control",mean differences are not all the same
same,"neurite outgrowth mediated by the substance after transfection with dominant negative FGFR, on NCAM-expressing fibroblasts",[3]; NCAM-expressing fibroblasts,decreases neurite outgrowth
same,"neurite outgrowth mediated by the substance after transfection with dominant negative FGFR, on control fibroblasts",[3]; control fibroblasts,decreases neurite outgrowth
